The values that follow come from patent US12344610B2, “APOL1 inhibitors and methods of use” (Maze Therapeutics, Inc., priority 2022, dated 2025).

pEC50: −log10 of the molar value.

In general, pEC50 refers to the EC50 on a negative log10 scale, so that one unit is a factor of ten.

For test [1], the system named is Trypanosoma brucei Lister 427 VSG221 with APOL1 G1 recombinant protein. Nature of the test: APOL1 G1 trypanosome cell rescue assay (Example B5). The test is classed as cell-based. The note with it: Trypanosoma brucei, 20 h, read-out: APOL1 G1 Trypanosome Rescue EC50, Trypanosoma brucei Lister 427 VSG221 with APOL1 G1 recombinant protein, 20 hours, CellTiter-Glo; geometric mean of at least 2 assay runs; † = single assay run. In outline: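 Recombinant mature APOL1 (residues 28-398, His-tag removed, E. coli-expressed, refolded from inclusion bodies, DDM buffer) at […] added with 250 trypanosomes/well in modified HMI-9 media. Duplicate 11-point 2-fold compound series, 0.4% DMSO; 20 h at 37° C, 5% CO2, then CellTiter-Glo luminescence for viability.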
(In general: ATP-based viability assays read luminescence as a measure of living cells.)

Test [2] has as its system HEK293 clonal cell line overexpressing APOL1 G1. Put plainly: APOL1 G1 HEK293 cell rescue assay (Example B3). The test is classed as cell-based. As to conditions: Homo sapiens, HEK293, HEK293 clonal line overexpressing APOL1 G1; geometric mean of at least 2 runs; † = single run; ¥ = concentration at 50% rescue estimated (no sigmoidal curve). Put shortly:
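HEK293 clonal line overexpressing APOL1 G1; EC50 is half-maximal reversal of APOL1-induced cell death. Values are the geometric mean of ≥2 runs on separate days, each run the average of duplicate wells. Where no sigmoidal curve could be fitted, the concentration giving 50% rescue was estimated.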

For `O=C1CCc2cc(OCCN3CCC4(CC3)C(=O)Nc3ccc(Cl)cc34)cnc2N1[C@H]1C[C@@H](CO)C1` (single isomer, unassigned) [Compound 319, 5-chloro-1′-[2-({7-oxo-8-[(cis)-3-(hydroxymethyl)cyclobutyl]-5,6,7,8-tetrahydro-1,8-naphthyridin-3-yl}oxy)ethyl]-1,2-dihydrospiro[indole-3,4′-piperidin]-2-one], the pEC50 in test [1] was 7.09; in test [2] it was 6.93.

With `C[C@]1(O)C[C@@H](N2C(=O)CCc3cc(OCCN4CCC5(CC4)C(=O)Nc4ccc(OC(F)F)cc45)cnc32)C1` [Cmpd 325, 5-(difluoromethoxy)-1′-[2-({7-oxo-8-[(cis)-3-hydroxy-3-methylcyclobutyl]-5,6,7,8-tetrahydro-1,8-naphthyridin-3-yl}oxy)ethyl]-1,2-dihydrospiro[indole-3,4′-piperidin]-2-one], the pEC50 in test [1] was 6.57; in test [2], 6.71.

For `CC(=O)N1CCCc2cc(OCCN3CCC4(CC3)C(=O)N(C)c3ccccc34)ccc21` [Compound 36, 1′-{2-[(1-acetyl-1,2,3,4-tetrahydroquinolin-6-yl)oxy]ethyl}-1-methyl-1,2-dihydrospiro[indole-3,4′-piperidin]-2-one], the pEC50 in test [1] was less than 5.40; in test [2], less than 5.67.

On to `NC(=O)c1ccc(OCCN2CCC3(CC2)C(=O)Nc2ccc(Cl)cc23)cc1` [Compound 45, 4-(2-{5-chloro-2-oxo-1,2-dihydrospiro[indole-3,4′-piperidin]-1′-yl}ethoxy)benzamide], for which the pEC50 in test [1] is 6.13; in test [2] it was 6.41.

Regarding `CS(=O)(=O)c1c(F)cc(OCCN2CCC3(CC2)C(=O)Nc2ccccc23)cc1F` [Compound 42, 1′-[2-(3,5-difluoro-4-methanesulfonylphenoxy)ethyl]-1,2-dihydrospiro[indole-3,4′-piperidin]-2-one], the values for the pEC50 in test [1] and in test [2] were 5.73 and 5.97, respectively.

Take `CS(=O)(=O)c1ccc(OCCN2CCC3(CC2)C(=O)Nc2ccc(Cl)cc23)cc1C#N` [Compound 50, 5-(2-{5-chloro-2-oxo-1,2-dihydrospiro[indole-3,4′-piperidin]-1′-yl}ethoxy)-2-methanesulfonylbenzonitrile]: the pEC50 in test [1] is 7.35; in test [2], 7.04.

In the case of `CNC(=O)N1CCCc2cc(OCCN3CCC4(CC3)C(=O)Nc3ccc(Cl)cc34)ccc21` [Compound 60, 6-(2-{5-chloro-2-oxo-1,2-dihydrospiro[indole-3,4′-piperidin]-1′-yl}ethoxy)-N-methyl-1,2,3,4-tetrahydroquinoline-1-carboxamide], the results for the pEC50 in test [1] and in test [2] were 6.64 and 6.74, respectively.

With `CS(=O)(=O)c1ccc(OCCN2CCC3(CC2)C(=O)Nc2ccc(C#N)cc23)cc1` [Compound 71, 1′-[2-(4-methanesulfonylphenoxy)ethyl]-2-oxo-1,2-dihydrospiro[indole-3,4′-piperidine]-5-carbonitrile], the pEC50 in test [1] and in test [2] was 5.87 throughout.

As for `CS(=O)(=O)N1CCCc2cc(OCCN3CCC4(CC3)C(=O)Nc3ccc(Cl)cc34)ccc21` [Compound 53, 5-chloro-1′-{2-[(1-methanesulfonyl-1,2,3,4-tetrahydroquinolin-6-yl)oxy]ethyl}-1,2-dihydrospiro[indole-3,4′-piperidin]-2-one], the pEC50 in test [1] was 6.80; in test [2], 6.66.

As for `O=C1Nc2ccccc2C12CCN(CCOc1ccc(S(=O)(=O)C(F)F)cc1)CC2` [Compound 44, 1′-[2-(4-difluoromethanesulfonylphenoxy)ethyl]-1,2-dihydrospiro[indole-3,4′-piperidin]-2-one], the pEC50 in test [1] is 6.37; in test [2] it was 6.32.

Take `C[C@]1(O)C[C@@H](n2cnc3cc(OCCN4CCC5(CC4)C(=O)Nc4ccc(Cl)cc45)cc(C#N)c32)C1` [Compound 439, 5-(2-{5-chloro-2-oxo-1,2-dihydrospiro[indole-3,4′-piperidin]-1′-yl}ethoxy)-1-[(cis)-3-hydroxy-3-methylcyclobutyl]-1H-1,3-benzodiazole-7-carbonitrile]: the figures for the pEC50 in test [1] and in test [2] were 7.29 and 7.34, respectively.

For the compound `CS(=O)(=O)C1(c2ncc(OCCN3CCC4(CC3)C(=O)Nc3ccc(Cl)cc34)cn2)CC1` [Compound 4, 5-chloro-1′-(2-{[2-(1-methanesulfonylcyclopropyl)pyrimidin-5-yl]oxy}ethyl)-1,2-dihydrospiro[indole-3,4′-piperidin]-2-one], the negative-log EC50 (pEC50) in test [1] is 6.77; in test [2], 6.75.

As to `Cn1ncc2cc(OCCN3CCC4(CC3)C(=O)Nc3ccc(Cl)cc34)ccc21` [Compound 68, 5-chloro-1′-{2-[(1-methyl-1H-indazol-5-yl)oxy]ethyl}-1,2-dihydrospiro[indole-3,4′-piperidin]-2-one], the pEC50 is 6.36 in test [1] and 6.43 in test [2].

As for `C[C@]1(O)C[C@@H](n2ncc3cc(OCCN4CCC5(CC4)C(=O)Nc4ccc(Cl)cc45)cnc32)C1` (single isomer, unassigned) [Compound 357, 5-chloro-1′-[2-({1-[(cis)-3-hydroxy-3-methylcyclobutyl]-1H-pyrazolo[3,4-b]pyridin-5-yl}oxy)ethyl]-1,2-dihydrospiro[indole-3,4′-piperidin]-2-one], the figures for the pEC50 in test [1] and in test [2] were 7.04 and 7.45, respectively.

In the case of `[2H]C([2H])(Oc1cnc2c(c1)CCC(=O)N2[C@H]1C[C@@](C)(O)C1)C([2H])([2H])N1CCC2(CC1)C(=O)Nc1ccc(Cl)cc12` [Compound 426, 5-chloro-1′-[2-({7-oxo-8-[(cis)-3-hydroxy-3-methylcyclobutyl]-5,6,7,8-tetrahydro-1,8-naphthyridin-3-yl}oxy)(1,1,2,2-^2H4)ethyl]-1,2-dihydrospiro[indole-3,4′-piperidin]-2-one], the pEC50 in test [1] was 7.05; in test [2], 7.10.

For `[2H]C([2H])([2H])[C@]1(O)C[C@@H](N2C(=O)CCc3cc(OCCN4CCC5(CC4)C(=O)Nc4ccc(Cl)cc45)cnc32)C1` [Compound 461, 5-chloro-1′-[2-({7-oxo-8-[(cis)-3-hydroxy-3-(^2H3)methylcyclobutyl]-5,6,7,8-tetrahydro-1,8-naphthyridin-3-yl}oxy)ethyl]-1,2-dihydrospiro[indole-3,4′-piperidin]-2-one], the pEC50 in test [1] is 7.12; in test [2], 7.09.

`Cc1ccc2c(c1)C1(CCN(CCOc3ccc(S(C)(=O)=O)cc3)CC1)C(=O)N2` [Compound 66, 1′-[2-(4-methanesulfonylphenoxy)ethyl]-5-methyl-1,2-dihydrospiro[indole-3,4′-piperidin]-2-one]: the negative-log EC50 (pEC50) in test [1] and in test [2] was 6.49 in each case.

For the compound `O=C1CCc2cc(OCCN3CCC4(CC3)C(=O)Nc3ccc(Cl)cc34)cnc2N1C1CC(CO)C1` (stereo not drawn) [Compound 326, 5-chloro-1′-[2-({8-[3-(hydroxymethyl)cyclobutyl]-7-oxo-5,6,7,8-tetrahydro-1,8-naphthyridin-3-yl}oxy)ethyl]-1,2-dihydrospiro[indole-3,4′-piperidin]-2-one], the pEC50 in test [1] was 7.03; in test [2], 6.98.

As for `C[C@]1(O)C[C@@H](n2ccc3cc(OCCN4CCC5(CC4)C(=O)Nc4ccc(C#N)cc45)cnc32)C1` [Compound 410, 2-oxo-1′-[2-({1-[(cis)-3-hydroxy-3-methylcyclobutyl]-1H-pyrrolo[2,3-b]pyridin-5-yl}oxy)ethyl]-1,2-dihydrospiro[indole-3,4′-piperidine]-5-carbonitrile], the values for the pEC50 in test [1] and in test [2] were 6.57 and 7.03, respectively.

`C[C@]1(O)C[C@@H](N2C(=O)Cc3cc(OCCN4CCC5(CC4)C(=O)Nc4ccc(C(F)F)cc45)cnc32)C1` [Compound 346, 5-(difluoromethyl)-1′-[2-({2-oxo-1-[(cis)-3-hydroxy-3-methylcyclobutyl]-1H,2H,3H-pyrrolo[2,3-b]pyridin-5-yl]oxy)ethyl]-1,2-dihydrospiro[indole-3,4′-piperidin]-2-one]: the pEC50 in test [1] was 6.94; in test [2], 7.08.

As to `CC(c1ncc(OCCN2CCC3(CC2)C(=O)Nc2ccc(Cl)cc23)cn1)S(C)(=O)=O` (stereo not drawn) [Compound 1, 5-Chloro-1′-(2-{[2-(1-methanesulfonylethyl)pyrimidin-5-yl]oxy}ethyl)-1,2-dihydrospiro[indole-3,4′-piperidin]-2-one], the pEC50 in test [1] was 6.53; in test [2], 6.52.

`CP(C)(=O)C1(c2ccc(OCCN3CCC4(CC3)C(=O)Nc3ccc(Cl)cc34)cc2)CC1` [Compound 343, 5-chloro-1′-(2-{4-[1-(dimethylphosphoryl)cyclopropyl]phenoxy}ethyl)-1,2-dihydrospiro[indole-3,4′-piperidin]-2-one]: the results for the pEC50 in test [1] and in test [2] were 6.69 and 6.37, respectively.

For `CCC1(O)CN(c2ncc(OCCN3CCC4(CC3)C(=O)Nc3ccc(Cl)cc34)cn2)C1` [Compound 397, 5-chloro-1′-(2-{[2-(3-ethyl-3-hydroxyazetidin-1-yl)pyrinlidin-5-yl]oxy}ethyl)-1,2-dihydrospiro[indole-3,4′-piperidin]-2-one], the pEC50 in test [1] is 6.57; in test [2] it was 6.98.

`CC(c1ccc(OCCN2CCC3(CC2)C(=O)Nc2ccc(Cl)cc23)cc1)S(C)(=O)=O` (single isomer, unassigned) [Compound 39, 5-chloro-1′-(2-{4-[(1S) or (1R)-1-methanesulfonylethyl]phenoxy}ethyl)-1,2-dihydrospiro[indole-3,4′-piperidin]-2-one]: the pEC50 in test [1] was 6.69; in test [2], less than 6.61.
